Results as given in publication PMC4521150, “Discovery of Novel Inhibitors and Fluorescent Probe Targeting NAMPT” (Scientific Reports, 2015).
“Also recorded” adds a separate entry of the source.

Experiments:
[1] = tested on: primary mouse hepatocytes; assay: Cell viability of primary hepatocytes from normal mice; type: cell-based; conditions: 30 μM
Procedure: Cell viability was determined by our previous method[27] using the Cell Counting Kit-8 (CCK-8, Dojindo, Japan). In human hepatocellular carcinoma cell line HepG2, cells were seeded in 96-well plate and starved for over 12 h with serum-free DMEM at 60~70% confluency, then treated with compounds or vehicle for 48 h. To determine the IC50 values of inhibitors, compounds with various concentrations were added into the 96-well plate. 10 μl CCK-8 solution was added to the culture medium and incubated at 37 °C for 1 h. The absorbance at 450 nm (A450) was detected by a plate reader. Each experiment was carried out in triplicate in three replicate wells. The IC50 values were determined by non-linear fitting of the concentration-dependent curves with the four-parameter IC50 logistic equation.
(§1) Hepatocytes were isolated from mouse liver by the two-step collagenase perfusion method. […] For imaging experiment, 1 × 10^5 cells were plated in a 35-mm glass bottom dishes or 5 × 10^4 were plated in 48-well plate for cell viability assay in DMEM supplemented with 10% FBS and antibiotics, and kept under an atmosphere of 95% air and 5% CO2 at 37 °C.

[2] = tested on: primary mouse hepatocytes; assay: Live cell fluorescence imaging in primary mouse hepatocytes (wild type vs NAMPT over expression transgenic); type: cell-based; conditions: hepatocytes of NAMPT over expression transgenic vs wild type mice, 3 μM
Procedure: as §1
(§2) For imaging experiment, HepG2 cells or primary hepatocytes were seeded into 35-mm glass bottom dishes (In Vitro Scientific). The following day, compounds were added to the medium at a final concentration of 3 μM. After 30 minutes, cells were rinsed twice with PBS (pH 7.5), then incubated in fresh culture medium and imaged on a fluorescence microscope (IX-71, Olympus) with a digital camera (Olympus). After 4 hours, these cells were imaged once again. Digital images were recorded and analyzed using ImageJ.

[3] = target: T1, recombinant human NAMPT (Homo sapiens, UniProt P43490); assay: NAMPT activity assay, IC50 determination (fluorometric detection of NMN derivative); conditions: molecular/biochemical assay, read-out: IC50 (NAMPT inhibition)
T1 construct: His tag (N); made in house; host or cells: E. coli BL21-CodonPlus (DE3)-RIL, pET21a+ vector
T1 sequence (P43490 whole entry): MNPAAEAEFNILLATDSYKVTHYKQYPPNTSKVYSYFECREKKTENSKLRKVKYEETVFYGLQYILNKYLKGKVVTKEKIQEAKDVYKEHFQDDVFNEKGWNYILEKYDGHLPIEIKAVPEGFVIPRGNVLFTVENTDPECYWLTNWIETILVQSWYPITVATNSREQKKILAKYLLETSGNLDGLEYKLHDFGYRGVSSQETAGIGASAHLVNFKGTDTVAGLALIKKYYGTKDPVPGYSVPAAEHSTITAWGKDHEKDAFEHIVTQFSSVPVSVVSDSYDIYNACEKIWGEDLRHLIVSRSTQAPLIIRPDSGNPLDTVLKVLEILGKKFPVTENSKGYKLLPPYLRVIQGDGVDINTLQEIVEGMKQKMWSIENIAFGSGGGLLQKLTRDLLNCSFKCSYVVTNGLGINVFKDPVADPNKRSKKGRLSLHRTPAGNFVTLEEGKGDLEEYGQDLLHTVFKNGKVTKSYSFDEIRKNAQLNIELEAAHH
Text: Using our previously established high throughput screening (HTS) platform and recombinant human NAMPT[14][15], we performed a HTS on a chemical library containing 30000 small-molecules (Chemdiv, CA, USA). Our HTS targeting NAMPT was developed based on a fluorometric method for NAMPT activity assay by measuring the fluorescence of nicotinamide mononucleotide (NMN) derivative resulting from the NAMPT enzymatic product NMN through simple chemical reactions (Fig. 1A). […] These fluorescent and non-fluorescent compounds were further studied separately.
HTS was performed using our previously reported method. 0.5 μl stock of each compound (1 mM DMSO stock) was transferred to a 96-well PCR plate for screening. In the primary screening, 5 ng NAMPT in 20 μl reaction buffer [0.4 mM phosphoribosylpyrophosphate (PRPP, Sigma), 2 mM ATP, 0.02% BSA, 2 mM DTT, 12 mM MgCl2 and 50 mM Tris-HCl (pH = 7.5)] was added into each well, the plate was incubated at 37 °C for 5 min, then 4.5 μl substrate of NAM was added to initiate the enzyme reaction, resulting in a final concentration of 2% DMSO, 2 μg/ml NAMPT, 0.2 μM NAM and 20 μM compound. After reacting at 37 °C for 15 min, the enzyme reaction was terminated by heating at 95 °C for 1 min and cooling in an ice bath. The product of NMN was detected through the following approach: after adding 10 μl 20% acetophenone in DMSO and 10 μl 2 M KOH into each well, the mixture was vortex-mixed and kept in ice bath for 2 min. […] Finally, 85 μl mixtures in each well were transferred into a flat-bottom 96-well black plate (Greiner), and the fluorescence (F) was measured using a Tecan Infinity M200 plate reader (Tecan Group Ltd.) by setting the excitation and emission wavelength to 382 nm and 445 nm respectively. The last row of each 96-well plate includes six wells of background controls and six wells of reference controls. The relative enzyme activity (Activity%) regulated by specific compound was calculated according to equation (1): […]
To determine the IC50 of inhibitors, 0.5 μl compound stocks with various concentrations were added into 96-well plate. The plate was incubated at 37 °C for 5 min after addition of 20 μl reaction buffer containing NAMPT. […] The IC50 values were determined by non-linear fitting of the concentration-dependent curves with the four-parameter IC50 logistic equation.

[4] = tested on: HepG2 NAD levels; assay: Cellular NAD measurement (enzymatic cycling assay) in HepG2 cells; type: cell-based, human
Procedure: Cellular level of NAD was measured by spectrophotometric enzymatic cycling assay, as described previously. Briefly, cells were seeded in 96-well plate and starved for over 12 h with serum-free DMEM at 60~70% confluency, following by treatment with compounds or vehicle for 24 h. Cells were lysed with 50 μl of 1M HClO4 on ice for 30 min. The lysates were cleared by centrifuging at 4 °C at 18,000 × g for 5 min, and cleared lysates (40 μl) were neutralized by adding 1M K2CO3 (16 μl) and incubation on ice for 20 min. After centrifuging for 10 min, 10 μl of supernatant were mixed with reaction buffer [50 mM Tris-HCl (pH 7.5), 3% ethanol, 1.66 mM PES (phenazineethosulfate), 0.42 mM MTT (3-(4,5-dimethylthiazolyl-2)-2,5-diphenyltetrazolium bromide), 90 μg/ml ADH] in a total volume of 100 ul, and incubated at 37 °C for 40 min. The absorbance at 570 nm was determined. A blank measurement without ADH was also carried out. Each experiment was carried out in triplicate in three replicate wells

[5] = tested on: HepG2 cells; assay: Live cell fluorescence imaging of compounds in HepG2 cells; type: cell-based, human; conditions: 3 μM
Procedure: NAMPT knockdown in HepG2 cells was performed by transfection of NAMPT siRNA synthesized by Shanghai GenePharma Co., Ltd (Shanghai, China). The siRNA sequence targeting NAMPT corresponded to coding regions (5′-[…]-3′, 5′-[…]-3′) of the NAMPT gene. The nonspecific siRNA oligonucleotides (synthesized by Shanghai GenePharma Co., Ltd, Shanghai, China) were used as negative controls. 10 nM of NAMPT siRNA or nonspecific siRNA were transfected into HepG2 cells with Lipofectamine RNAiMax reagent (Invitrogen, CA, USA) according to the manufacturer’s instructions. After 24 or 48 hours, transfected cells were subjected to subsequent analysis.
as §2

Compound: CCCn1c(=O)c(-c2ccc(C(=O)NCc3cccnc3)cc2)nc2ccccc21 [M049-0244]
- Inhibition of normal hepatocytes viability [1]: ~ 20%
- Cellular fluorescence intensity with NAMPT over expression [2]: increased the cellular fluorescence intensity
- IC50 [3]: 170 ± 12 nM
- Decrease of cellular NAD level ([4]; HepG2, 1 μM, 24 hours): ~ 80%
- IC50 ([4]; Homo sapiens, HepG2, 24 hours treatment, read-out: IC50 for reducing NAD level): 17.6 nM
- Cellular fluorescence in living HepG2 cells ([5]; 30 minutes incubation, washed): fluorescence was obviously detected within the cell; also recorded: significantly stained living HepG2 cells
- Cellular fluorescence after NAMPT knockdown (RNAi-NAMPT) ([5]; HepG2, NAMPT siRNA vs nonspecific siRNA): significantly reduced the fluoresecence
